Measurements: publication PMC10375784, “Synthesis of phthalazine-based derivatives as selective anti-breast cancer agents through EGFR-mediated apoptosis: in vitro and in silico studies” (BMC Chemistry, 2023)
Where two headings read alike, the source gives them in different places.

How the values were obtained:
VEGFR‐2 = settings: cited from earlier work
MCF-7 cells = assay: MTT cytotoxicity assay, MCF-7; format: cell-based; settings: Homo sapiens, MCF7, 48 h, three independent trials, read-out: IC50 (μM) ± SD MCF-7
Experimental: (§1) MCF-7, HepG2 cancer cells and WISH normal cells were obtained from the National Cancer Institute in Cairo, Egypt, they were cultured in complete media of RPMI and DMEM, respectively at 5% carbon dioxide and 37 °C following standard tissue culture work. The cells were grown in “10% fetal bovine serum (FBS) and 1% penicillin–streptomycin” in 96-multiwell plate. All the synthesized compounds were screened for their cytotoxicity using 20 µL of MTT solution (Promega, USA) for 48 hours using untreated and treated cells with concentrations of (0.01, 0.1, 1, 10, and 100 µM) for 48 h. The plate was cultured for 3 h. Percentage of cell viability was calculated following this equation: 100-(ASample/AControl)X100 . An ELISA microplate reader was used to measure the absorbance at 690 nm to calculate the viability versus concentration, and the IC50 value using GraphPad prism software.

MDA-MB-231 cells [1] = assay: MTT cytotoxicity assay, MDA-MB-231; format: cell-based
[2] = system: breast MCF-7 and MDA-MB-231 cancer cell lines; assay: SAR ranking of cytotoxicity (from Table 1); format: cell-based; settings: Fig. 4, SAR summary
[3] = system: breast MCF-7 and MDA-MB-231 cancer cell lines; assay: SAR ranking of cytotoxicity (from Table 1); settings: based on Table 1; cell line not stated, order follows MCF-7 values
Experimental: as §1

MCF-10A cells = assay: MTT cytotoxicity assay, normal breast cells MCF-10A; format: cell-based; settings: Homo sapiens, MCF-10A; MTT, 48 h, normal breast cells; read-out: IC50 (μM) ± SD MCF-10A
[4] = as above; format: cell-based; settings: human; MCF-10A normal breast cells, highest concentration; read-out: percentage of cell viability at the highest concentration
EGFR = molecular target: T1, EGFR (Homo sapiens, UniProt P00533); assay: EGFR enzyme inhibition (BPS Bioscience kit, ELISA); format: biochemical; settings: three independent replicates; for IC50: five concentrations, read-out: EGFR IC50 [nM] ± SD
T1 construct: purchased BPS Bioscience Corporation 40321
Experimental: The luminescence was measured with a microplate reader at 450 nm by ELISA Reader (PerkinElmer). Inhibition percentage was calculated following this equation: 100-[Acontrol/Atreated-Control)] , IC50 was determined using GraphPad prism7 using inhibition curves at five different concentrations of each compound.

MDA-MB-231 cells [5] = assay: Flow cytometry Annexin V/PI apoptosis/necrosis assessment; format: cell-based; settings: MDA-MB-231, treated at IC50 0.57 μM, 48 h
Experimental: MDA-MB-231 cells were incubated overnight in 6-well culture plates (3–5 × 10^5 cells/well) and then treated with the IC50 values for 48 h with compound 12d. After that, the cells were incubated in a 100 µL solution of Annexin binding buffer "25 mM CaCl2, 1.4 M NaCl, and 0.1 M Hepes/NaOH, pH 7.4" in the dark for 30 min with "Annexin V-FITC solution (1:100) and propidium iodide (PI) at a concentration equivalent to 10 µg/mL." The labeled cells were then extracted using the Cytoflex FACS machine. CytExpert software was used to analyze the data.

[6] = Homo sapiens, MDA-MB-231, MTT, 48 h, three independent trials, read-out: IC50 (μM) ± SD MDA-MB-231
[7] = Fig. 3, MTT, 100 µM to 0.01 µM, 48 h, cell line not given, they match MDA-MB-231
[8] = Homo sapiens, Fig. 3, MTT, 100 µM to 0.01 µM, 48 h, cell line not given, they match MDA-MB-231, read-out: IC50 (Fig. 3 curve fit)

T1 sequence (P00533 25-1210): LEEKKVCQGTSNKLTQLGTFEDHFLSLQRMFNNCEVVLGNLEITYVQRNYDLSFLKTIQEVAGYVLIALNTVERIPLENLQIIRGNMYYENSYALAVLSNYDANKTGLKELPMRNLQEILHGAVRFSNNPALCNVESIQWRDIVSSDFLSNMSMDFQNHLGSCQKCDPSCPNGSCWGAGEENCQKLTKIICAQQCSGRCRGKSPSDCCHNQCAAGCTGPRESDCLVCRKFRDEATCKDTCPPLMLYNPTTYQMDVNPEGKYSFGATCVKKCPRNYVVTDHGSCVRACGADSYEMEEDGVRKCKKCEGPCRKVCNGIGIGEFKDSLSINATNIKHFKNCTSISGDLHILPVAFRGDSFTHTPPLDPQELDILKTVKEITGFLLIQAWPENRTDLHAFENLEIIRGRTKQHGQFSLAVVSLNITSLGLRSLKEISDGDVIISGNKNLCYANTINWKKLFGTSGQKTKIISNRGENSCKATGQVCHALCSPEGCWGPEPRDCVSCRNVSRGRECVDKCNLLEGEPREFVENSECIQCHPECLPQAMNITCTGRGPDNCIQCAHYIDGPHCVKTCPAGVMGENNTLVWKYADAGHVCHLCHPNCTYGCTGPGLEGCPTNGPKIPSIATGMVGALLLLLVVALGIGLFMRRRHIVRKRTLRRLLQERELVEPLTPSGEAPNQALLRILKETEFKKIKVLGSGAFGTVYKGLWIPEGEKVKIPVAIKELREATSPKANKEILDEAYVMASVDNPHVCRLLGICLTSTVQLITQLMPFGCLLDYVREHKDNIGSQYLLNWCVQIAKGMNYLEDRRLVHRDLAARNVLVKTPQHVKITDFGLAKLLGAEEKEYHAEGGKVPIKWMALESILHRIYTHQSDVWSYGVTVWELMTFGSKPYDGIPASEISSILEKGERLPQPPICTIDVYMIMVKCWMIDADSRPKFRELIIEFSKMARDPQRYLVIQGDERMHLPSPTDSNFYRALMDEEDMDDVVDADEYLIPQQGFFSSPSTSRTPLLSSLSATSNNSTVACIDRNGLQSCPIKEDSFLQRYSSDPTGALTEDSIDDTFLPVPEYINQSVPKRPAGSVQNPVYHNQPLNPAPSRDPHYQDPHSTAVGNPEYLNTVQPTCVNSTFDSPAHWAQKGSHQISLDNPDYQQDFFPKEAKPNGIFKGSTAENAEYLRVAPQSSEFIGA

Structure (SMILES)	melting point [°C]	IC50 (MCF-7 cells) [µM]	IC50 (MDA-MB-231 cells [1]; [6]) [µM]	level of cytotoxic activity (Fig. 4) [2]	order of cytotoxic activity (SAR) [3]	also measured
Cc1ccc(Nc2nnc(Cc3ccncc3)c3ccccc23)cc1Br [AAC789]						IC50 (VEGFR‐2): 20 nM
O=C(Cn1nc(Cc2ccccc2)c2ccccc2c1=O)NCc1ccccc1 [Compound 6a, 2-(4-benzyl-1-oxophthalazin-2(1H)-yl)-N-benzyl acetamide]	174 to 176	18.6 ± 0.69	19.8 ± 0.74	Third level activity (Poor cytotoxicity)		
C=CCNC(=O)Cn1nc(Cc2ccccc2)c2ccccc2c1=O [Compound 6f, 2-(4-benzyl-1-oxophthalazin-2(1H)-yl)-N-allyl acetamide]	164 to 166	23.1 ± 0.94	≥ 50	Third level activity (Poor cytotoxicity)		
O=C(Cn1nc(Cc2ccccc2)c2ccccc2c1=O)N1CCCCC1 [Compound 6g, 4-benzyl-2-(2-oxo-2-(piperidin-1-yl)ethyl) phthalazin-1(2H)-one]	192 to 194					
O=C(Cn1nc(Cc2ccccc2)c2ccccc2c1=O)N1CCOCC1 [Compound 6h, 4-benzyl-2-(2-morpholino-2-oxoethyl) phthalazin-1(2H)-one]	210 to 212	17.3 ± 0.31	21.3 ± 0.64	Third level activity (Poor cytotoxicity)		
COC(=O)CNC(=O)Cn1nc(Cc2ccccc2)c2ccccc2c1=O [Compound 7a, methyl (2-(4-benzyl-1-oxophthalazin-2(1H)-yl)acetyl) glycinate]		≥ 50	26.5 ± 0.79			
Nc1cc(=O)[nH]n1C(=O)CNC(=O)Cn1nc(Cc2ccccc2)c2ccccc2c1=O [Compound 12d, N-(2-(5-amino-3-oxo-2,3-dihydro-1H-pyrazol-1-yl)-2-oxoethyl)-2-(4-benzyl-1-oxophthalazin-2(1H)-yl) acetamide]		1.9 ± 0.01	0.57 ± 0.09	First level activity (Potent cytotoxicity)	potent cytotoxicicty (IC50 ≤ 2.5 μM)	IC50 (MCF-10A cells): 41.6 ± 1.8 µM; viability at 48 h, 100 µM [4]: 3%; inhibition at 10 µM (EGFR): 97.6 ± 2.49%; IC50 (EGFR): 21.4 ± 0.67 nM; LogIC50 (Fig. 3 curve fit) (MDA-MB-231 cells [1]; [7]): -0.2373; IC50 (MDA-MB-231 cells [1]; [8]): 0.579 µM; cell growth inhibition at the highest concentration (MDA-MB-231 cells [1]; MDA-MB-231, highest concentration (range 100 µM to 0.01 µM), 48 h): 98.2%; early apoptosis (Q4, AV+/PI−) (MDA-MB-231 cells [5]): 24.2%; late apoptosis (Q2, AV+/PI+) (MDA-MB-231 cells [5]): 18.3%; necrosis fold vs control (MDA-MB-231 cells [5]): 9.25 fold; total apoptosis fold vs control (MDA-MB-231 cells [5]): 64.4 fold; total apoptotic cell death (MDA-MB-231 cells [5]; control 0.66%): 42.5%; necrosis (Q1, AV−/PI+) (MDA-MB-231 cells [5]; control 0.67%): 6.2%
C#Cc1cccc(Nc2ncnc3cc(OCCOC)c(OCCOC)cc23)c1 [Erlotinib, reference compound]		1.32 ± 0.04				IC50 (MCF-10A cells): 30.9 ± 1.8 µM; IC50 (MDA-MB-231 cells [1]; Homo sapiens, MDA-MB-231, 48 h, MTT, three independent trials, read-out: IC50 (μM) ± SD MDA-MB-231): 1 µM; IC50 (MDA-MB-231 cells [1]; MTT, 48 h, three independent trials, read-out: IC50 (μM) ± SD MDA-MB-231): 1.02 ± 0.1 µM

Second part, led by results:

melting point [°C]	Structure (SMILES)	IC50 (MCF-7 cells) [µM]	IC50 (MDA-MB-231 cells [1]; [6]) [µM]	level of cytotoxic activity (Fig. 4) [2]	order of cytotoxic activity (SAR) [3]	also measured
202 to 204	NNC(=O)CNC(=O)Cn1nc(Cc2ccccc2)c2ccccc2c1=O [Compound 8a, 2-(4-benzyl-1-oxophthalazin-2(1H)-yl)-N-(2-hydrazineyl-2-oxoethyl) acetamide]	31.2 ± 1.01	1.34 ± 0.13			
186 to 188	O=C(CNC(=O)Cn1nc(Cc2ccccc2)c2ccccc2c1=O)NCc1ccccc1 [Compound 10a, N-benzyl-2-(2-(4-benzyl-1-oxophthalazin-2(1H)-yl)acetamido) acetamide]	≥ 50	6.4 ± 0.18			
188 to 190	C=CCNC(=O)CNC(=O)Cn1nc(Cc2ccccc2)c2ccccc2c1=O [Compound 10f, N-allyl-2-(2-(4-benzyl-1-oxophthalazin-2(1H)-yl)acetamido) acetamide]	15.4 ± 0.28	8.6 ± 0.1	Second level activity (Moderate cytotoxicity)	moderate cytotoxicity (IC50 ≤ 20 μM)	
148 to 150	O=C(Cn1nc(Cc2ccccc2)c2ccccc2c1=O)NCC(=O)N1CCOCC1 [Compound 10h, 2-(4-benzyl-1-oxophthalazin-2(1H)-yl)-N-(2-morpholino-2-oxoethyl) acetamide]	16.4 ± 0.31	2.3 ± 0.1	Second level activity (Moderate cytotoxicity)	moderate cytotoxicity (IC50 ≤ 20 μM)	
162 to 164	COC(=O)CNC(=O)CNC(=O)Cn1nc(Cc2ccccc2)c2ccccc2c1=O [Compound 11a, methyl (2-(4-benzyl-1-oxophthalazin-2(1H)-yl)acetyl) glycyl glycinate]	11.3 ± 0.29	7.2 ± 0.3	Second level activity (Moderate cytotoxicity)	moderate cytotoxicity (IC50 ≤ 20 μM)	
190 to 192	COC(=O)C(NC(=O)CNC(=O)Cn1nc(Cc2ccccc2)c2ccccc2c1=O)C(C)C (stereo not shown) [Compound 11d, methyl (2-(4-benzyl-1-oxophthalazin-2(1H)-yl)acetyl) glycyl valinate]	2.1 ± 0.01	0.92 ± 0.01			IC50 (MCF-10A cells): 39.4 ± 1.8 µM; viability at 48 h, 100 µM [4]: 11%; inhibition at 10 µM (EGFR): 92.9 ± 2.08%; IC50 (EGFR): 79.6 ± 1.35 nM; LogIC50 (Fig. 3 curve fit) (MDA-MB-231 cells [1]; [7]): -0.03564; IC50 (MDA-MB-231 cells [1]; [8]): 0.921 µM
209 to 210	C/C(=N\NC(=O)CNC(=O)Cn1nc(Cc2ccccc2)c2ccccc2c1=O)c1ccco1 [Compound 12c, (E)-2-(4-benzyl-1-oxophthalazin-2(1H)-yl)-N-(2-(2-(1-(furan-2-yl)ethylidene) hydrazineyl)-2-oxoethyl) acetamide]	1.4 ± 0.05	1.89 ± 0.04	First level activity (Potent cytotoxicity)	potent cytotoxicicty (IC50 ≤ 2.5 μM)	IC50 (MCF-10A cells): 43.6 ± 1.9 µM; viability at 48 h, 100 µM [4]: 9.6%; inhibition at 10 µM (EGFR): 96.2 ± 2.04%; IC50 (EGFR): 65.4 ± 1.12 nM; LogIC50 (Fig. 3 curve fit) (MDA-MB-231 cells [1]; [7]): 0.2772; IC50 (MDA-MB-231 cells [1]; [8]): 1.89 µM
